Source: patent publication US12428433B2, “Fluorine-containing heterocyclic derivatives with macrocyclic structure and use thereof” (ScinnoHub Pharmaceutical Co., Ltd, priority 2019, dated 2025)

What was measured:
TRKA(G595R) = TRKA(G595R) (Homo sapiens (Human), UniProt P04629, G595R); experiment: Kinase inhibitory activity (Caliper mobility shift), TRKA(G595R); format: biochemical
Method: (§1) […] (Shanghai) Co., Ltd. was commissioned to complete the testing example. […] 3.1 A tested compound was accurately weighed and dissolved in 100% DMSO to prepare into a 10 mM solution. […] 3.2.3 A kinase solution of 2.5 times final concentration was prepared with 1×kinase buffer. […] 3.2.5 The reaction plate was shaken and mixed evenly, and then incubated at room temperature for 10 minutes. 3.2.6 Mixed solutions of ATP and kinase substrate 22 of 5 times and 3 times final concentrations were prepared with 1×kinase buffer. 3.2.7 15 μL of mixed solution of ATP and substrate of 5 times or 3 times final concentration was added. 3.2.8 The 384-well plate was centrifuged at 1,000 rpm for 30 seconds, shaken and mixed evenly, and then incubated at room temperature for corresponding time. 3.2.9 The kinase reaction was terminated. 3.2.10 A conversion rate was read by the microplate reader Caliper EZ Reader. Calculation Formula Inhibition rate %=(conversion rate % maximum-conversion rate % sample)/(conversion rate % maximum-conversion rate % minimum)×100 wherein the conversion rate % sample was: a reading number of a conversion rate of a sample; the conversion rate % minimum was: an average value of the negative control well, which represented a reading number of a conversion rate without an enzyme activity well; and the conversion rate % maximum was: an average value of a ratio of the positive control well, which represented a reading number of a conversion rate without a compound inhibition well.

[1] = Stability test in liver microsomes, rat; format: in vitro ADME; details: for half-life at 1 μM: 0.5 mg/mL
Method: (§2) A stability of the compound of the present application in liver microsomes of human, rat and mouse was measured.
(§3) 3.1 A buffer and a liver microsome were prepared into an incubation solution according to the following table:
(§4) 3.2 The following two experiments were carried out respectively: a) incubation system added with coenzyme factor NADPH: 25 μL of NADPH (10 mM) was added into an incubation solution (mainly comprising a liver microsome and a phosphate buffer), so that final concentrations of the liver microsome and the NADPH were 0.5 mg/mL and […] respectively; and b) incubation system without coenzyme factor NADPH: 25 μL of phosphate buffer (100 mM) was added into the incubation solution, so that the final concentration of the liver microsome was 0.5 mg/mL. The incubation systems above were preheated at 37° C. for 10 minutes respectively.
(§5) 3.3 2.5 μL of positive control compound or a tested compound solution (100 μM) was added into the incubation systems described in “step 3.2” above respectively for reaction, and the positive control compound was verapamil (purchased from Sigma), so that a final concentration of the tested compound of the present application or the positive control compound was 1 μM. The incubation solution added with the compound was incubated in water at 37° C. in batches.
(§6) 3.4 30 μL of aliquot was taken from a reaction solution after 0.5 minute, 5 minutes, 15 minutes, 30 minutes and 45 minutes respectively, and the reaction was terminated by adding 5 times volume of cold acetonitrile containing 200 nM caffeine and 100 nM tolbutamide. The aliquot was centrifuged at a gravity acceleration of 3,220 g for 40 minutes, and 100 μL of supernatant was mixed with 100 μL of ultrapure water, and then used for LC-MS/MS analysis.
(§7) A peak area was determined by an extracted ion chromatogram. A slope value k was determined by linear regression of a remaining percentage of a parent drug relative to […] an incubation time curve.
(§8) In-vitro half-life periods (t1/2) were respectively calculated and determined according to the slope value, and an average value of the in-vitro half-life periods was converted into an in-vitro intrinsic clearance rate (CLint, represented by μL/min/mg protein).

[2] = Stability test in liver microsomes, human; format: in vitro ADME; details: for half-life at 1 μM: 0.5 mg/mL
Method: as §2, §3, §4, §5, §6, §7, §8

TRKC(G623R) = TRKC(G623R) (Homo sapiens (Human), UniProt Q16288, G623R); experiment: Kinase inhibitory activity (Caliper mobility shift), TRKC(G623R); format: biochemical
Method: Sundia Meditech (Shanghai) Co., Ltd. was commissioned to complete the testing example.
3.1 A tested compound was accurately weighed and dissolved in 100% DMSO to prepare into a 10 mM solution.
250 nL of the compound of 100 times final concentration was transferred to a reaction plate OptiPlate-384F by a dispenser Echo 550.
3.2.3 A kinase solution of 2.5 times final concentration was prepared with 1×kinase buffer.
3.2.4 10 μL of kinase solution of 2.5 times final concentration was added into a compound well and a positive control well respectively; and 10 μL of 1×kinase buffer was added into a negative control well.
3.2.5 The reaction plate was shaken and mixed evenly, and then incubated at room temperature for 10 minutes.
3.2.6 Mixed solutions of ATP and kinase substrate 22 of 5 times and 3 times final concentrations were prepared with 1×kinase buffer.
3.2.7 15 μL of mixed solution of ATP and substrate of 5 times or 3 times final concentration was added.
3.2.8 The 384-well plate was centrifuged at 1,000 rpm for 30 seconds, shaken and mixed evenly, and then incubated at room temperature for corresponding time.
3.2.9 The kinase reaction was terminated.
3.2.10 A conversion rate was read by the microplate reader Caliper EZ Reader.
Calculation Formula Inhibition rate %=(conversion rate % maximum−conversion rate % sample)/(conversion rate % maximum−conversion rate % minimum)×100
wherein the conversion rate % sample was: a reading number of a conversion rate of a sample; the conversion rate % minimum was: an average value of the negative control well, which represented a reading number of a conversion rate without an enzyme activity well; and the conversion rate % maximum was: an average value of a ratio of the positive control well, which represented a reading number of a conversion rate without a compound inhibition well.
Fitting of dose-effect curve: a log value of concentration was used as an X axis, a percentage inhibition rate was used as a Y axis, and the dose-effect curve was fitted by a log (inhibitor) vs. response-variable slope of the analysis software GraphPad Prism 5 (four-parameter model fitting), so as to obtain an IC50 value of each compound on enzyme activity.

TRKa = TRKa (Homo sapiens (Human), UniProt P04629); experiment: Kinase inhibitory activity (Caliper mobility shift), TRKa; format: biochemical
Method: as §1

Sequence of TRKC(G623R) (Q16288 32-839 G623R): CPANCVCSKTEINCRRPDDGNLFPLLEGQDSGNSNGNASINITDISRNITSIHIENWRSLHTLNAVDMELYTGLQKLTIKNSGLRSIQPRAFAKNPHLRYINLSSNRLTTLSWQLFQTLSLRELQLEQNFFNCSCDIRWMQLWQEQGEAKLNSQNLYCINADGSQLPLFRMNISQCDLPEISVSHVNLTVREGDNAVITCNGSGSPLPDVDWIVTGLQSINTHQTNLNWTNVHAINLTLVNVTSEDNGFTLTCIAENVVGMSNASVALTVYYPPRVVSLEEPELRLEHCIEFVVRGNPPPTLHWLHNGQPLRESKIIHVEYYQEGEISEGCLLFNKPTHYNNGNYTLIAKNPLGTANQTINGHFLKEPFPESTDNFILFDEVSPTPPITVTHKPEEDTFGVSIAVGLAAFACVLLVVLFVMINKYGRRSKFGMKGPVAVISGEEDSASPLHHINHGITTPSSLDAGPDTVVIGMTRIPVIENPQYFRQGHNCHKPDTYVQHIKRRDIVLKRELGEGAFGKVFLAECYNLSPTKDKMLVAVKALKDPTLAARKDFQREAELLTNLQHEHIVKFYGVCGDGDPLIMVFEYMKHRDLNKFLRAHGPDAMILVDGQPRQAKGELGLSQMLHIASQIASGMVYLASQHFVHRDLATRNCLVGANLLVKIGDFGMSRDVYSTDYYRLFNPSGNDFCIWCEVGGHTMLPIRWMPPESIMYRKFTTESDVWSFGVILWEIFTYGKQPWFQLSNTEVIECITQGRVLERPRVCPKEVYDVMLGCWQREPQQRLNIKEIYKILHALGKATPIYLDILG
Sequence of TRKA(G595R) (P04629 33-796 G595R): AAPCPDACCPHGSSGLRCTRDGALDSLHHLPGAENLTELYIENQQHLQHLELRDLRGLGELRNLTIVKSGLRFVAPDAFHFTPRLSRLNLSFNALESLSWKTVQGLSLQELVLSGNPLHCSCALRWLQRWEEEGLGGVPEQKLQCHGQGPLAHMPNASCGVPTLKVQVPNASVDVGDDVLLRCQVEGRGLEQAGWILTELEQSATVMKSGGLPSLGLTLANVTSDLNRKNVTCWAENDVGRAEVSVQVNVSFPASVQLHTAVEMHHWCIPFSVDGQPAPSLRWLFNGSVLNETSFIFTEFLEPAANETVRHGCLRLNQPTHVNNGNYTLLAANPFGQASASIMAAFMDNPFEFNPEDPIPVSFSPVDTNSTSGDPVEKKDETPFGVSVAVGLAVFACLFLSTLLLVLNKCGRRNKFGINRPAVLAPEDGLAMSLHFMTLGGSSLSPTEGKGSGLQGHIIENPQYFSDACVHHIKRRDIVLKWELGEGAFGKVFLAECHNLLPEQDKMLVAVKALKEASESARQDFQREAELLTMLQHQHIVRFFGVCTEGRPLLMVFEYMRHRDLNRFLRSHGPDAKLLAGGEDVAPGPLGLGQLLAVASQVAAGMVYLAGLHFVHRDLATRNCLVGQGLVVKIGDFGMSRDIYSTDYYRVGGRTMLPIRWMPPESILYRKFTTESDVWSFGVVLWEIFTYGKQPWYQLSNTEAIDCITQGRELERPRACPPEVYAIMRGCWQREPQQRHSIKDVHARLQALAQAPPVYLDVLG
Sequence of TRKa (P04629 33-796): as the sequence (P04629 33-796 G595R) above, with R563G counted along it

SMILES	IC50 (TRKA(G595R)) [nM]	microsomal CLint at 1 μM [1] [µL/min/mg]	half-life at 1 μM [1] [min]	% Remaining(45 min) [1] [%]	microsomal CLint at 1 μM [2] [µL/min/mg]	half-life at 1 μM [2] [min]	% Remaining(45 min) [2] [%]	IC50 (TRKC(G623R)) [nM]	IC50 (TRKa) [nM]
O=C1N[C@H]2C[C@H](C2)Oc2ncc(F)cc2[C@H]2CCCN2c2ccn3ncc1c3n2 (stereo in doubt) [Positive control 1, reference compound]	0.72	123	11.3	9.03	92.3	15	12.43	1.7	0.39
O=C1N[C@H]2C[C@H](C2)Oc2ncc(F)cc2[C@H]2CCCN2c2nc3c1cnn3cc2F [Example 2, ((1^3E,1^4E,2^2R,5^1S,5^3S)-1^6,3^5-difluoro-4-oxa-6-aza-1(5,3)-pyrazolo[1,5-a]pyrimidine-3(3,2)-pyridine-2(1,2)-pyrrolidine-5(1,3)-cyclobutancycloheptan-7-one]		214	6.5	2.37	86	16.1	14.38	1.8	
C[C@H]1Nc2nc3c(cnn3cc2F)C(=O)N[C@H]2C[C@H](C2)Oc2ncc(F)cc21 [Example 3, (3^1S,3^3S,6^3E,6^4E,8R)-1^5,6^6-difluoro-8-methyl-2-oxo-4,7-diaza-6(3,5)-pyrazolo[1,5-a]pyrimidine-1(2,3)-pyridine-3(1,3)-cyclobutylcyclooctane-5-one]	0.89	22.8	60.8	51.22	11.1	128	69.89	1.5	0.36
C[C@H]1Nc2ccn3ncc(c3n2)C(=O)N[C@H]2C[C@H](C2)Oc2ncc(F)cc21 [Positive control 2, reference compound]	0.97	30	46.3	40.95	16.4	84.8	67.39	1.4	0.43
